pKi: −log10 of the molar value. In brackets after ≈: the same amount, converted by molar mass. Structures can show the parent of a compound that is named as a salt. Where two headings read alike, the source gives them in different places.
Legend:
HIV-1 (RF) in MT-2 cells = assay: microbe, parasite or virus in culture; format: cell-based; settings: read-out: IC90
In short: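 HIV-1 laboratory strains (RF, MN, IIIB) grown in H9 cells in RPMI 1640 with 5% FCS; infections in MT-2 cells. Viral RNA quantified by hybridization with biotinylated gag/pol capture probes on streptavidin plates and alkaline phosphatase-conjugated reporter probes; BH10 gag-pol in vitro transcripts serve as RNA standards.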

[1] = molecular target: single-chain tethered dimer of HIV protease (Human immunodeficiency virus 1, UniProt P04585); assay: biochemical; format: biochemical; parameters: fused on or other part: A second copy of the same protease unit is joined to the first by a short peptide tether, giving one polypeptide
[2] = Human immunodeficiency virus 1, MT2, 48 h, Table 2d, class symbols
[3] = read-out: HPLC K1, Table 2d, class symbols
[4] = Human immunodeficiency virus 1, MT2, HIV RNA assay, HIV-1 infected MT-2 cells, class symbols

## O=C1N(Cc2cccc(-c3cc[nH]n3)c2)C(Cc2ccccc2)C(O)C(O)C(Cc2ccccc2)N1Cc1cccc(-c2cc[nH]n2)c1 (centres unmarked) (as salt: HCl) [Example 15YM]
other
  melting point: 195 to 197 °C

## O=C1N(Cc2cccc(-c3ncc[nH]3)c2)C(Cc2ccccc2)C(O)C(O)C(Cc2ccccc2)N1Cc1cccc(-c2ncc[nH]2)c1 (centres unmarked) (as salt: hydrochloride) [Example 15BS]
other
  melting point: 191 to 194 °C

## O=C1N(Cc2cccc(OCCO)c2)C(Cc2ccccc2)C(O)C(O)C(Cc2ccccc2)N1Cc1cccc(OCCO)c1 (centres unmarked) (hydrate or solvate) [10Y]
other
  melting point: 245 to 247 °C

## O=C1N(Cc2cccc(OCc3ccccc3)c2)C(Cc2ccccc2)C(O)C(O)C(Cc2ccccc2)N1Cc1cccc([N+](=O)[O-])c1 (centres unmarked) (hydrate or solvate) [11P]
other
  melting point: 173 to 176 °C

## O=C1N(Cc2cccc(-c3nnn[nH]3)c2)C(Cc2ccccc2)C(O)C(O)C(Cc2ccccc2)N1Cc1cccc(-c2nnn[nH]2)c1 (centres unmarked) [9T]
HIV-1 (RF) in MT-2 cells; [2]
  IC90: > 100 µg/mL
other
  melting point: 159.4 °C
[1]; [3]
  pKi: > 8.00

## O=C1N(Cc2cccc(-c3nnn[nH]3)c2)C(Cc2ccccc2)C(O)C(O)C(Cc2ccccc2)N1CC1CC1 (centres unmarked) [9U]
HIV-1 (RF) in MT-2 cells; [2]
  IC90: < 10 µg/mL
other
  melting point: 171.6 °C
[1]; [3]
  pKi: > 8.00

## N#Cc1cccc(CN2C(=O)N(Cc3cccc(C=O)c3)C(Cc3ccccc3)C(O)C(O)C2Cc2ccccc2)c1 (centres unmarked) [10C]
HIV-1 (RF) in MT-2 cells; [2]
  IC90: < 10 µg/mL
other
  melting point: 189 to 191 °C
[1]; [3]
  pKi: > 8.00

## CON=Cc1cccc(CN2C(=O)N(Cc3cccc(C=NOC)c3)C(Cc3ccccc3)C(O)C(O)C2Cc2ccccc2)c1 (centres unmarked) [10D]
HIV-1 (RF) in MT-2 cells; [2]
  IC90: > 100 µg/mL
other
  melting point: 183 to 185 °C
[1]; [3]
  pKi: 6.00 to 8.00

## O=C1N(Cc2cccc(O)c2)C(Cc2ccccc2)C(O)C(O)C(Cc2ccccc2)N1Cc1ccc2ccccc2c1 (centres unmarked) [10K]
HIV-1 (RF) in MT-2 cells; [2]
  IC90: < 10 µg/mL
other
  melting point: 137 to 138 °C
[1]; [3]
  pKi: > 8.00

## CONC(=O)c1cccc(CN2C(=O)N(Cc3cccc(C(=O)NOC)c3)C(Cc3ccccc3)C(O)C(O)C2Cc2ccccc2)c1 (centres unmarked) [10R]
HIV-1 (RF) in MT-2 cells; [2]
  IC90: < 10 µg/mL
other
  melting point: 150 to 158 °C
[1]; [3]
  pKi: > 8.00

## CONC(=O)c1ccc(CN2C(=O)N(Cc3ccc(C(=O)NOC)cc3)C(Cc3ccccc3)C(O)C(O)C2Cc2ccccc2)cc1 (centres unmarked) [10S]
HIV-1 (RF) in MT-2 cells; [2]
  IC90: < 10 µg/mL
other
  melting point: 186 to 189 °C
[1]; [3]
  pKi: > 8.00

## Cc1ccc(CN2C(=O)N(Cc3ccc(CO)cc3)C(Cc3ccccc3)C(O)C(O)C2Cc2ccccc2)cc1 (centres unmarked) [15EI]
other
  melting point: 174 to 175 °C
[1]; read-out: HPLC K1, Table 2d, HIV protease inhibition, HPLC method
  pKi: > 8.00

## CNC(=O)Nc1cccc(CN2C(=O)N(Cc3cccc(NC(=O)NC)c3)C(Cc3ccccc3)C(O)C(O)C2Cc2ccccc2)c1 (centres unmarked) [15L]
other
  melting point: 173.7 °C
[1]; [3]
  pKi: > 8.00

## CC(C)CCCC(C)CCN1C(=O)N(CCC(C)CCCC(C)C)C(Cc2ccccc2)C(O)C(O)C1Cc1ccccc1 (centres unmarked) [Example 1P]
other
  melting point: 80 to 82 °C

## O=C1N(Cc2ccccn2)C(Cc2ccccc2)C(O)C(O)C(Cc2ccccc2)N1Cc1ccccn1 (centres unmarked) [Example 3M]
HIV-1 (RF) in MT-2 cells; [4]
  IC90: 10 to 100 µg/mL (≈ 19.7 to 197 µM)
other
  melting point: 151 to 153 °C

## O=C1N(Cc2cccc3ccccc23)C(Cc2ccccc2)C(O)C(O)C(Cc2ccccc2)N1Cc1cccc2ccccc12 (centres unmarked) [Example 3T]
HIV-1 (RF) in MT-2 cells; [4]
  IC90: > 100 µg/mL
other
  melting point: 231 to 233 °C

## CC(=NO)c1cccc(CN2C(=O)N(Cc3cccc(C(C)=NO)c3)C(Cc3ccccc3)C(O)C(O)C2Cc2ccccc2)c1 (centres unmarked) [Example 9Q]
HIV-1 (RF) in MT-2 cells; [2]
  IC90: < 10 µg/mL
other
  melting point: 200 to 202 °C

## O=C1N(Cc2cccc(-c3cc[nH]n3)c2)C(Cc2ccccc2)C(O)C(O)C(Cc2ccccc2)N1Cc1cccc(-c2cc[nH]n2)c1 (centres unmarked) [Example 15YL]
HIV-1 (RF) in MT-2 cells; Human immunodeficiency virus 1, MT2, 48 h, Table 2d, HIV RNA assay
  IC90: < 10 µg/mL
other
  melting point: 208 to 210 °C

## CCCCCC1C(O)C(O)C(CCCCC)N(Cc2ccccc2)C(=O)N1Cc1ccccc1 (centres unmarked) [Example 16AH]
other
  melting point: 94 to 97 °C
[1]; read-out: K4 HPLC, Table 2e
  pKi: 6.00 to 8.00

## CCCCCCC1C(O)C(O)C(CCCCCC)N(Cc2ccccc2)C(=O)N1Cc1ccccc1 (centres unmarked) [Example 16AI]
other
  melting point: 79 to 82 °C
[1]; read-out: K4 HPLC, Table 2e
  pKi: 6.00 to 8.00

## CC1C(O)C(O)C(C)N(Cc2ccc3ccccc3c2)C(=O)N1Cc1ccc2ccccc2c1 (centres unmarked) [Example 16H]
other
  melting point: 236 to 238 °C
[1]; read-out: K4 HPLC, Table 2e
  pKi: < 6.00

From USRE37781E1, “Substituted cyclic carbonyls and derivatives thereof useful as retroviral protease inhibitors” (DuPont Pharmaceuticals Company, priority 1991, dated 2002)
